Source: patent US7915270B2, “Oxazole ketones as modulators of fatty acid amide hydrolase” (The Scripps Research Institute, priority 2006, dated 2011)

Experiments:
Rat FAAH = target: T1, Rat FAAH (Rattus norvegicus, UniProt P97612); assay: Assay Method 2: FAAH assay, 3H-anandamide hydrolysis in cell homogenate (SK-N-MC cells transfected with rat FAAH); format: biochemical; settings: 3H-AEA 80 nM, rt 1 h, pH 9
T1 construct: expressed in transfected cells
T1 sequence (P97612 1-579): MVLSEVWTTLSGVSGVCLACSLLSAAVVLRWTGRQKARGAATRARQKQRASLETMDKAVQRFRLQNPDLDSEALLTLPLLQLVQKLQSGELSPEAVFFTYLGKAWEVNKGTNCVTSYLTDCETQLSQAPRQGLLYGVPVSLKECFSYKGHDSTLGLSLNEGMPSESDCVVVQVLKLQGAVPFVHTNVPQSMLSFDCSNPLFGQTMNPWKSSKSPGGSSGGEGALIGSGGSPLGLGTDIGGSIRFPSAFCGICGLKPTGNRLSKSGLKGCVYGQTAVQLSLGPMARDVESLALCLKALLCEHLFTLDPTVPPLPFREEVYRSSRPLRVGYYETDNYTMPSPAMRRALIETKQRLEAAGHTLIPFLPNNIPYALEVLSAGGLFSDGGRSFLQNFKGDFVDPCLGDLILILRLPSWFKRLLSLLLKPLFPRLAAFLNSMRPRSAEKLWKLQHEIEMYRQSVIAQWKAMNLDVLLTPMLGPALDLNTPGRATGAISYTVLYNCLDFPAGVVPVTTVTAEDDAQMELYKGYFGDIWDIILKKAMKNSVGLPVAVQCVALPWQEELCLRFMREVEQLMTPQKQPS
Description: A. Transfection of Cells with Rat FAAH
(§1) A 10-cm tissue culture dish with a confluent monolayer of SK—N-MC cells was split 2 days (d) prior to transfection. Using sterile technique, the media was removed and the cells were detached from the dish by the addition of trypsin. One fifth of the cells were then placed onto a new 10-cm dish. Cells were grown in a 37° C. incubator with 5% CO2 in Minimal Essential Media Eagle with 10% Fetal Bovine Serum. After 2 d, cells were approximately 80% confluent. These cells were removed from the dish with trypsin and pelleted in a clinical centrifuge. The pellet was re-suspended in 400 μL complete media and transferred to an electroporation cuvette with a 0.4 cm gap between the electrodes. Supercoiled rat FAAH cDNA (1 μg) was added to the cells and mixed. The voltage for the electroporation was set at 0.25 kV, and the capacitance was set at 960 μF. After electroporation, the cells were diluted into complete media (10 mL) and plated onto four 10-cm dishes. Because of the variability in the efficiency of electroporation, four different concentrations of cells were plated. The ratios used were 1:20, 1:10, and 1:5, with the remainder of the cells being added to the fourth dish. The cells were allowed to recover for 24 h before adding the selection media (complete media with 600 μg/mL G418). After 10 d, dishes were analyzed for surviving colonies of cells. Dishes with well-isolated colonies were used. Cells from individual colonies were isolated and tested.
The assay mixture consisted of 50 μL of the cell homogenate, 10 μL of the test compound, and 40 μL of anandamide [1-^3H-ethanolamine] (^3H-AEA, Perkin-Elmer, 10.3 Ci/mmol), which was added last, for a final tracer concentration of 80 nM. The reaction mixture was incubated at rt for 1 h. During the incubation, 96-well Multiscreen filter plates (catalog number MAFCNOB50; Millipore, Bedford, Mass., USA) were loaded with 25 μL of activated charcoal (Multiscreen column loader, catalog number MACL09625, Millipore) and washed once with 100 μL of MeOH. […] After the 1 h incubation, 60 μL of the reaction mixture were transferred to the charcoal plates, which were then assembled on top of the DYNEX plates using Centrifuge Alignment Frames (catalog number MACF09604, Millipore). The unbound labeled ethanolamine was centrifuged through to the bottom plate (5 min at 2000 rpm), which was preloaded with the scintillant, as described above. The plates were sealed and left at rt for 1 h before counting on a Hewlett Packard TopCount.

FAAH [1] = target: T2, FAAH (Homo sapiens, UniProt O00519); assay: Assay Method 1B: FAAH assay, 3H-anandamide hydrolysis in cell homogenate (T84 or SK-N-MC cells transfected with human FAAH); format: biochemical; design: expressed in transfected cells; settings: 3H-AEA 80 nM, rt 1 h, pH 9
T2 sequence (O00519 1-579): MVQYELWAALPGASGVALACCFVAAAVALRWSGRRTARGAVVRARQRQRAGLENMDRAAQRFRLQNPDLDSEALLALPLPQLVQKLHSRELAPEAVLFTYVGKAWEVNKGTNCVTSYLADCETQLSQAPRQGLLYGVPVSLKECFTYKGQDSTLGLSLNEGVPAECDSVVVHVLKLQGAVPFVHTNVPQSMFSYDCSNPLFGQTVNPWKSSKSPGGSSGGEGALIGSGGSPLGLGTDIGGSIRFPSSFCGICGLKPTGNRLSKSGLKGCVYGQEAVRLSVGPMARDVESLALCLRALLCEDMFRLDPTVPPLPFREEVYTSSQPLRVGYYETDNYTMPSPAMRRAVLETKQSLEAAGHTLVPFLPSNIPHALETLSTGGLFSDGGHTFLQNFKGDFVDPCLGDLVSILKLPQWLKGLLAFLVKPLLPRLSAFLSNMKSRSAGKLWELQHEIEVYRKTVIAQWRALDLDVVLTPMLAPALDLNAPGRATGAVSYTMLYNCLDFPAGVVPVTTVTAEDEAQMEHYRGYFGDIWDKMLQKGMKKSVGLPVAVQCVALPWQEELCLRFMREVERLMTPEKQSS
Description: as §1, with “Transfection of Cells with Human FAAH A 10-cm” for “A 10-cm”, “electrodes. Supercoiled human FAAH cDNA” for “electrodes. Supercoiled rat FAAH cDNA”, “and tested. […] The reaction mixture was incubated at rt for 1 h. During the incubation, 96-well Multiscreen filter plates (catalog number MAFCNOB50; Millipore, Bedford, Mass., USA) were loaded with 25 μL of activated charcoal (Multiscreen column loader, catalog number MACL09625, Millipore) and washed once with 100 μL of MeOH. Also during the incubation, 96-well DYNEX MicroLite plates (catalog number NL510410) were loaded with 100 μL of MicroScint40 (catalog number 6013641, Packard Bioscience, Meriden, Conn., USA). After the 1 h incubation, 60 μL of the reaction mixture were transferred to the charcoal plates, which were then assembled on top of the DYNEX plates using Centrifuge Alignment Frames (catalog number MACF09604, Millipore). The unbound labeled ethanolamine was centrifuged through to the bottom plate (5 min at 2000 rpm), which was preloaded with the scintillant, as described above. The plates were sealed and left at rt for 1 h before counting on a Hewlett Packard TopCount.” for “and tested.”

FAAH [2] = target: T3, FAAH (Rattus norvegicus, UniProt P97612); assay: Assay Method 1A: FAAH enzyme assay, 14C-oleamide hydrolysis, solubilized liver plasma membrane extract;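 note: ki obtained by Dixon analysis, taking the x-intercept of inhibitor concentration versus reciprocal rate plots at fixed substrate level and correcting for substrate concentration relative to Km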
T3 sequence (P97612 1-579): T1 sequence (P97612 1-579)
Description: Linear least squares fits were used for all reaction progress curves and R^2 values were consistently >0.97. […] Ki values were determined by the Dixon Method (x-intercepts of weighted linear fits of [I] versus 1/rate plots at constant substrate concentration, which were converted to Ki values using the formula Ki=−xint/[1+[S]/Km]).

Row | Structure (SMILES) | IC50 (Rat FAAH) [nM] | IC50 (FAAH [1]) [nM] | Ki (FAAH [2]) [nM]
1 | O=C(CCCCCCc1ccccc1)c1ncc(-c2cccc([N+](=O)[O-])c2)o1 [Example 2, 1-(5-(3-Nitrophenyl)oxazol-2-yl)-7-phenylheptan-1-one] | 500 | 50 | 28
2 | O=C(CCCCCCc1ccccc1)c1ncc(-c2ccccc2F)o1 [Example 10, 1-(5-(2-Fluorophenyl)oxazol-2-yl)-7-phenylheptan-1-one] | 9000 | 1600 | 110
3 | O=C(CCCCCCc1ccccc1)c1ncc(-c2cccc(F)c2)o1 [Example 11, 1-(5-(3-Fluorophenyl)oxazol-2-yl)-7-phenylheptan-1-one] | 6300 | 220 | 60
4 | COc1cccc(-c2cnc(C(=O)CCCCCCc3ccccc3)o2)c1 [Example 14, 1-(5-(3-Methoxyphenyl)oxazol-2-yl)-7-phenylheptan-1-one] | 4500 | 100 | 40
5 | N#Cc1ccc(-c2cnc(C(=O)CCCCCCc3ccccc3)o2)cc1 [Example 18, 4-(2-(7-Phenylheptanoyl)oxazol-5-yl)benzonitrile] | 220 | 290 | –
6 | NS(=O)(=O)c1cccc(-c2cnc(C(=O)CCCCCCc3ccccc3)o2)c1 [Example 20, 3-(2-(7-Phenylheptanoyl)oxazol-5-yl)benzenesulfonamide] | 27 | 4 | 2
7 | NS(=O)(=O)c1ccc(-c2cnc(C(=O)CCCCCCc3ccccc3)o2)cc1 [Example 21, 4-(2-(7-Phenylheptanoyl)oxazol-5-yl)benzenesulfonamide] | 53 | 8 | 10
8 | O=C(O)c1cccc(-c2cnc(C(=O)CCCCCCc3ccccc3)o2)c1 [Example 25, 3-(2-(7-Phenylheptanoyl)oxazol-5-yl)benzoic acid] | 11 | 4 | 5
9 | O=C(O)c1ccc(-c2cnc(C(=O)CCCCCCc3ccccc3)o2)cc1 [Example 26, 4-(2-(7-Phenylheptanoyl)oxazol-5-yl)benzoic acid] | 160 | 6 | 60
10 | Nc1ccccc1-c1cnc(C(=O)CCCCCCc2ccccc2)o1 [Example 27, 1-(5-(2-Aminophenyl)oxazol-2-yl)-7-phenylheptan-1-one] | 4000 | 1000 | 750
11 | Nc1cccc(-c2cnc(C(=O)CCCCCCc3ccccc3)o2)c1 [Example 28, 1-(5-(3-Aminophenyl)oxazol-2-yl)-7-phenylheptan-1-one] | 290 | 17 | 19
12 | Nc1ccc(-c2cnc(C(=O)CCCCCCc3ccccc3)o2)cc1 [Example 29, 1-(5-(4-Aminophenyl)oxazol-2-yl)-7-phenylheptan-1-one] | 980 | 280 | –
13 | O=C(CCCCCCc1ccccc1)c1ncc(-c2ccccc2O)o1 [Example 30, 1-(5-(2-Hydroxyphenyl)oxazol-2-yl)-7-phenylheptan-1-one] | 3500 | 115 | 170
14 | O=C(CCCCCCc1ccccc1)c1ncc(-c2cccc(O)c2)o1 [Example 31, 1-(5-(3-Hydroxyphenyl)oxazol-2-yl)-7-phenylheptan-1-one] | 570 | 55 | –
15 | O=C(CCCCCCc1ccccc1)c1ncc(-c2ccc(O)cc2)o1 [Example 32, 1-(5-(4-Hydroxyphenyl)oxazol-2-yl)-7-phenylheptan-1-one] | 1800 | 450 | –

The remaining molecules from weak to strong by IC50 (Rat FAAH), led by results:

Row | IC50 (Rat FAAH) [nM] | IC50 (FAAH [1]) [nM] | Ki (FAAH [2]) [nM] | Structure (SMILES)
16 | 2200 | 260 | 60 | COC(=O)c1ccccc1-c1cnc(C(=O)CCCCCCc2ccccc2)o1 [Example 22, Methyl 2-(2-(7-phenylheptanoyl)oxazol-5-yl)benzoate]
17 | 1000 | 24 | 40 | COC(=O)c1ccc(-c2cnc(C(=O)CCCCCCc3ccccc3)o2)cc1 [Example 24, Methyl 4-(2-(7-phenylheptanoyl)oxazol-5-yl)benzoate]
18 | 520 | 9 | – | N#Cc1cccc(-c2cnc(C(=O)CCCCCCc3ccccc3)o2)c1 [Example 17, 3-(2-(7-Phenylheptanoyl)oxazol-5-yl)benzonitrile]
19 | 500 | 340 | 125 | O=C(CCCCCCc1ccccc1)c1ncc(-c2ccccc2[N+](=O)[O-])o1 [Example 1, 1-(5-(2-Nitrophenyl)oxazol-2-yl)-7-phenylheptan-1-one]
20 | 100 | 15 | 12 | COC(=O)c1cccc(-c2cnc(C(=O)CCCCCCc3ccccc3)o2)c1 [Example 23, Methyl 3-(2-(7-phenylheptanoyl)oxazol-5-yl)benzoate]
21 | 47 | 8000 | – | O=C(CCCCCCc1ccccc1)c1ncc(-c2c[nH]c(=O)[nH]c2=O)o1 [Example 54, 5-(2-(7-Phenylheptanoyl)oxazol-5-yl)pyrimidine-2,4(1H,3H)-dione]
